Laboratory results reported in BindingDB's records for doi:10.1021/jm991079p (University of Heidelberg, 2000).

Key:
[1] = biological target: Sigma-2 receptor (TMEM97) (Rattus norvegicus); test: Binding affinity was measured on Sigma receptor type 2 with rat liver membranes and [3H]- DTG as ligand.
[2] = biological target: Sigma non-opioid intracellular receptor 1 (Cavia porcellus) (UniProt Q60492); test: Binding affinity was measured on Sigma receptor type 1 with guinea pig membranes and [3H]- pentazocine as ligand.
Chain of Sigma non-opioid intracellular receptor 1 (Cavia porcellus) (Q60492 whole entry, looked up): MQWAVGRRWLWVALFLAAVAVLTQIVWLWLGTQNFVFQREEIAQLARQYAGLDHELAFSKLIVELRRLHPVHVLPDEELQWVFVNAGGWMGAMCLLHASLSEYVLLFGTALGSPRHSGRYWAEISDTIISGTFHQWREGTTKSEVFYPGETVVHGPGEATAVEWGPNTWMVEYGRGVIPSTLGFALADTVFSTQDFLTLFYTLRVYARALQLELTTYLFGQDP

Ki [1] [nM] | Ki [2] [nM] | Structure (SMILES)
21400 | 484 | CCN(CC)CCNC(=O)c1cc(I)c(N)cc1OC
2350 | 278 | CCN(CC)CCNC(=O)c1cc(Br)c(N)c(I)c1OC [4-Amino-5-bromo-N-(2-diethylamino-ethyl)-3-iodo-2-methoxy-benzamide]
115000 | 5190 | CCN(CC)CCNC(=O)c1cc(I)c(NC(C)=O)cc1OC [4-acetamido-N-(2-(diethylamino)ethyl)-5-iodo-2-methoxybenzamide]
6520 | 249 | CCN(CC)CCNC(=O)c1ccc(OC)c(I)c1 [N-(2-Diethylamino-ethyl)-3-iodo-4-methoxy-benzamide (IMBA)]
1020 | 92 | CCN(CC)CCNC(=O)c1cc(I)ccc1OC [N-(2-Diethylamino-ethyl)-5-iodo-2-methoxy-benzamide]
